Measured values: patent publication US20230339970A1, “CASEIN KINASE 1 DELTA MODULATORS” (priority 2020, published 2023)

Key:
[1] = molecular target: T1, human CSNK1D (Homo sapiens, UniProt P48730); assay: Whole Cell nBRET CSNK1D Binding Assay; conditions: living CHO cells stably expressing human CSNK1D tagged with nanoluciferase; NanoBret tracer 130 nM; 2 hours at 37 C
T1 construct: expressed in transfected cells

[2] = molecular target: T2, human recombinant GST cleaved CSNK1D (Homo sapiens, UniProt P48730); assay: Purified Enzyme Assay (ADP-Glo CSNK1D Kinase Assay); type: biochemical; conditions: 2 nM CSNK1D; peptide substrate 150 μM; ATP 20 μM; 45 minutes at room temperature
T2 construct: GST (cleaved yes); purchased University of Dundee clone DU 19064
T2 sequence (P48730 whole entry): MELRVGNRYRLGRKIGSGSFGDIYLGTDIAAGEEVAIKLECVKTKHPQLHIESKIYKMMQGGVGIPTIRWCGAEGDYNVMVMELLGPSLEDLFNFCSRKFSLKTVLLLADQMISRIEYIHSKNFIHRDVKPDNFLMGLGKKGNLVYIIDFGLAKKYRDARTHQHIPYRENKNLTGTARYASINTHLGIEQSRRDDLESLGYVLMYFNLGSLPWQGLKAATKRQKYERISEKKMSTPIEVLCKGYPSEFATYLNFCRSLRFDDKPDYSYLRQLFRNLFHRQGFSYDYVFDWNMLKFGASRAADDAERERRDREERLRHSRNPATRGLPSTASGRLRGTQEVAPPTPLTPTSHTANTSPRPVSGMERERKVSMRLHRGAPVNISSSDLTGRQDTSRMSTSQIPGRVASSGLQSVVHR
Description: In this assay, CSNK1D phosphorylates a substrate peptide PLSRTL-pS-VASLPGL in the presence of ATP. […] This assay monitors CSNK1D kinase activity by measuring the amount of ADP produced in the assay.
The substrate mix is added to each well of a low volume, 384-well, white opaque plate. Test compounds were diluted in HBSS and added in a dose-response to the plate.
The total volume of each reaction is 5 ul (2 μL of substrate mix, 1 μL of diluted compounds, and 2 μL of human recombinant CSNK1D). The plates are incubated for 45 minutes at room temperature.
ADP was quantified using the ADP-Glo™ Kinase Assay. ADP-Glo Reagent (5 μL) was added to each well. After a 1 hour incubation at room temperature, Kinase Detection Reagent (10 μL) was added to each well and incubated for 30 minutes. […] The raw data from the Envision is used to calculate percent activity.

T1 sequence (P48730 whole entry): as above

Row | Structure (SMILES) | IC50 [1] | IC50 [2]
1 | CC1(C)Cn2nc(-c3ccc(F)cn3)c(-c3ccn4nccc4c3)c2CO1 [Example 140, 2-(5-Fluoropyridin-2-yl)-6,6-dimethyl-3-(pyrazolo[1,5-a]pyridin-5-yl)-6,7-dihydro-4H-pyrazolo[5,1-c][1,4]oxazine] | 0.122 µM | 0.018 µM
2 | Cc1cc(-c2c(-c3ccc(F)cn3)nn3c2OCC2(CC2)C3)c2c(Cl)n[nH]c2n1 [Example 464, 3′-(3-Chloro-6-methyl-1H-pyrazolo[3,4-b]pyridin-4-yl)-2′-(5-fluoropyridin-2-yl)-5′H,7′H-spiro[cyclopropane-1,6′-pyrazolo[5,1-b][1,3]oxazine]] | 0.011 µM | 0.005 µM
3 | Fc1ccc(-c2nn3c(c2-c2ccnc4[nH]ncc24)CCC(F)(F)C3)cc1 [Example 42, 4-(6,6-Difluoro-2-(4-fluorophenyl)-4,5,6,7-tetrahydropyrazolo[1,5-a]pyridin-3-yl)-1H-pyrazolo[3,4-b]pyridine] | 0.016 µM | 0.003 µM
4 | Cc1cc(-c2c(-c3ccc(F)cc3)nn3c2C[C@@H]2C[C@@H]23)c2cn[nH]c2n1 [Example 270] | 0.008 µM | 0.001 µM
5 | C[C@@H]1OCc2c(-c3ccnc4[nH]ncc34)c(-c3ccc(F)cc3)nn2[C@H]1C (single isomer, unassigned) [Example 115, (6*S,7*S)-2-(4-Fluorophenyl)-6,7-dimethyl-3-(1H-pyrazolo[3,4-b]pyridin-4-yl)-6,7-dihydro-4H-pyrazolo[5,1-c][1,4]oxazine] | 0.074 µM | 0.006 µM
6 | [2H]C([2H])([2H])[C@]1(C#N)CCc2c(-c3ccnc4[nH]ncc34)c(-c3ccc(F)cn3)nn2C1 (single isomer, unassigned) [Example 323, *S-2-(5-Fluoropyridin-2-yl)-6-(methyl-d3)-3-(1H-pyrazolo[3,4-b]pyridin-4-yl)-4,5,6,7-tetrahydropyrazolo[1,5-a]pyridine-6-carbonitrile] | 0.015 µM | 0.001 µM
7 | CC1(C)Cn2nc(-c3ccc(F)cn3)c(-c3ccnc4cc[nH]c34)c2CO1 [Example 149, 2-(5-Fluoro-2-pyridyl)-6,6-dimethyl-3-(1H-pyrrolo[3,2-b]pyridin-7-yl)-4,7-dihydropyrazolo[5,1-c][1,4]oxazine] | > 10 µM | 1.42 µM
8 | COc1cnccc1-c1c(-c2ccc(F)cn2)nn2c1COC(C)(C)C2 [Example 130, 2-(5-Fluoropyridin-2-yl)-3-(3-methoxypyridin-4-yl)-6,6-dimethyl-6,7-dihydro-4H-pyrazolo[5,1-c][1,4]oxazine] | 0.624 µM | 0.031 µM
9 | CC1(CF)CCc2c(-c3ccn4nccc4c3)c(-c3ccc(F)cn3)nn2C1 (single isomer, unassigned) [Example 289, (*R)-5-[6-(Fluoromethyl)-2-(5-fluoro-2-pyridyl)-6-methyl-5,7-dihydro-4H-pyrazolo[1,5-a]pyridin-3-yl]pyrazolo[1,5-a]pyridine] | 0.114 µM | 0.094 µM
10 | CC1(CC2COC2)CCc2c(-c3ccnc4[nH]ncc34)c(-c3ccc(F)cn3)nn2C1 (single isomer, unassigned) [Example 321, (*S)-4-(2-(5-Fluoropyridin-2-yl)-6-methyl-6-(oxetan-3-ylmethyl)-4,5,6,7-tetrahydropyrazolo[1,5-a]pyridin-3-yl)-1H-pyrazolo[3,4-b]pyridine] | 0.037 µM | –
11 | Fc1ccc(-c2nn3c(c2-c2ccnc4[nH]ncc24)COC(C(F)(F)F)C3)cc1 (stereo not drawn) [Example 99, 2-(4-Fluorophenyl)-3-(1H-pyrazolo[3,4-b]pyridin-4-yl)-6-(trifluoromethyl)-6,7-dihydro-4H-pyrazolo[5,1-c][1,4]oxazine] | 0.054 µM | –

Continued by falling IC50 [1], values first:

Row | IC50 [1] | IC50 [2] | Structure (SMILES)
12 | 3.96 µM | 0.156 µM | Fc1ccc(-c2nn3c(c2-c2c(F)cnc4[nH]ncc24)COC2(C3)CC2(F)F)nc1 (single isomer, unassigned) [Example 436, (*S)-1′1l′-Difluoro-3-(5-fluoro-1H-pyrazolo[3,4-b]pyridin-4-yl)-2-(5-fluoro-2-pyridyl)spiro[4,7-dihydropyrazolo[5,1-c][1,4]oxazine-6,2′-cyclopropane]]
13 | 1.19 µM | 0.092 µM | [2H]C([2H])([2H])[C@]1(C(F)(F)F)Cn2nc(-c3ccc(F)cn3)c(-c3c(F)c(C)nc4[nH]nc(C)c34)c2CO1 (single isomer, unassigned) [Example 430, (*R)-3-(5-Fluoro-3,6-dimethyl-1H-pyrazolo[3,4-b]pyridin-4-yl)-2-(5-fluoropyridin-2-yl)-6-(methyl-d3)-6-(trifluoromethyl)-6,7-dihydro-4H-pyrazolo[5,1-c][1,4]oxazine]
14 | 0.751 µM | 0.032 µM | C[C@@H]1OCc2c(-c3ccnc4[nH]ncc34)c(-c3ccc(F)cn3)nn2[C@H]1C (stereo in doubt) [Example 119, (6*S,7*S)-2-(5-Fluoropyridin-2-yl)-6,7-dimethyl-3-(1H-pyrazolo[3,4-b]pyridin-4-yl)-6,7-dihydro-4H-pyrazolo[5,1-c][1,4]oxazine]
15 | 0.359 µM | 0.018 µM | CC1(C)Cn2nc(-c3ccc(Cl)cn3)c(-c3ccnc4[nH]ncc34)c2CO1 [Example 146, 2-(5-Chloropyridin-2-yl)-6,6-dimethyl-3-(1H-pyrazolo[3,4-b]pyridin-4-yl)-6,7-dihydro-4H-pyrazolo[5,1-c][1,4]oxazine]
16 | 0.162 µM | 0.013 µM | Cc1cc(-c2c(-c3ccc(F)cn3)nn3c2CO[C@H](C)C3)c2cn[nH]c2n1 (single isomer, unassigned) [Example 87, (*R)-2-(5-Fluoro-2-pyridyl)-6-methyl-3-(6-methyl-1H-pyrazolo[3,4-b]pyridin-4-yl)-6,7-dihydro-4H-pyrazolo[5,1-c][1,4]oxazine]
17 | 0.075 µM | 0.009 µM | CC1(C)COc2c(-c3ccnc4ccsc34)c(-c3ccc(F)cn3)nn2C1 [Example 214, 2-(5-Fluoropyridin-2-yl)-6,6-dimethyl-3-(thieno[3,2-b]pyridin-7-yl)-6,7-dihydro-5H-pyrazolo[5,1-b][1,3]oxazine]
18 | 0.054 µM | 0.003 µM | C[C@H]1OCc2c(-c3ccnc4[nH]ncc34)c(-c3ccc(F)cc3)nn2[C@H]1C (relative stereo) [Example 112, (6*R,7*S)-2-(4-Fluorophenyl)-6,7-dimethyl-3-(1H-pyrazolo[3,4-b]pyridin-4-yl)-6,7-dihydro-4H-pyrazolo[5,1-c][1,4]oxazine]
19 | 0.021 µM | 0.005 µM | Fc1ccc(-c2nn3c(c2-c2ccnc4[nH]ncc24)[C@H]2CC[C@@H]3C2)cc1 (single isomer, unassigned) [Example 61]
20 | 0.019 µM | 0.004 µM | Fc1ccc(-c2nn3c(c2-c2c(F)cnc4[nH]ncc24)CCC(F)(F)C3)cc1 [Example 280, 4-(6,6-difluoro-2-(4-fluorophenyl)-4,5,6,7-tetrahydropyrazolo[1,5-a]pyridin-3-yl)-5-fluoro-1H-pyrazolo[3,4-b]pyridine]
21 | 0.015 µM | – | FCC1Cn2nc(-c3ccc(F)cc3)c(-c3cnc4[nH]ncc4c3)c2CO1 (stereo not drawn) [Example 103, 6-(Fluoromethyl)-2-(4-fluorophenyl)-3-(1H-pyrazolo[3,4-b]pyridin-5-yl)-6,7-dihydro-4H-pyrazolo[5,1-c][1,4]oxazine]
